Data set [1] can be described thus: Oral absorption in studies on animal models. The class given is in vivo.
A short description of a further data set: in vivo. The note with it: mouse, po.
Data set [2] relates to histidine auxotroph mutant of mouse salmonella TA97, TA98, TA100 and TA102. From the text:
Bacterial Reverse Mutation Test of II-1
Strains: histidine auxotroph mutant of mouse salmonella TA97, TA98, TA100 and TA102.
Results: the test consists of two parts, i.e., −S9 and +S9. […] No bacteriostatic actions to all the strains are observed at all other doses, and the growth background is good.

The next data set concerns the target T1, dopamine D2 receptor (Homo sapiens, UniProt P14416).
T1 construct: expressed in transfected cells; host or cells: CHO-hD2L cells (membrane preparation)
Kind of data set: Dopamine D2 receptor-binding assay ([3H]Spiperone displacement). The note with it: inhibition of binding of 0.4 nM [3H]Spiperone, CHO-hD2L film product, room temperature 120 minutes; read-out: IC50 (affinity to D2 receptor). Here is the method:
A Dopamine D2 Receptor-Binding Assay
An isotope ligand for D2 receptor: [^3H]Spiperone (77.0 Ci/mmol); (+)Butaclamol; GF/C glass fiber media; a liposoluble scintillation solution; and the D2 receptor protein expressed by sf9 cells.
A binding assay of a film product of CHO-hD2L cells and [^3H]Spiperone is conducted in a 250 μl of 50 mM of Tris-HCl […] buffer (Ph=7.4) solution comprising 100 mM of NaCl, 1 mM of MgC12 and 1% of DMSO. A sample in duplicate containing compounds to be tested, 0.4 nM of [^3H]Spiperone and 12 ug of protein is maintained at room temperature for 120 minutes. The bound radioactive ligand is separated by flash filtration under reduced pressure using Whatman GF/B glass fiber filter pre-treated with 0.3% polyethylenelmine, and radioactivity maintained on the filter is measured using liquid scintillation spectrophotometry. The title compounds in the following examples are tested using the above test, which comprises first of all testing competitive inhibition rate of each compound at a concentration of 10 umol/L to binding of [^3H]Spiperone to D2 receptor through a rough screening; and compounds having inhibition rate higher than 95% are subjected to receptor binding assay under a series of concentrations to determine a half-inhibitory concentration (IC50, the concentration of a compound needed for inhibiting binding of 50% [^3H]Spiperone to D2 receptor). Two tubes under each concentration are measured, and each compound is subjected to two independent tests.

A further data set concerns the target T2, rD2R (Rattus norvegicus, UniProt P61169).
T2 construct: expressed in transfected cells; host or cells: CHO cells stably expressing rD2R (CHO-rD2)
Put plainly: Antagonistic test of D2 receptor (cAMP radioimmunoassay, Forskolin + Dopamine, CHO-rD2 cells). Format: cell-based. The note with it: 10 μM Forskolin + 10 μM Dopamine, cAMP generated. Here is the method:
An Antagonistic Test of D2 Receptor
CHO-rD2 cell is seeded on a 96-well plate at a concentration of 30,000 cells/well, and cultured overnight; each medicine is dissolved in a serum-free F12 culture media containing 100 μM of IBMX, and is added to the above cell for preculturing 30 minutes at 37° C.; thereafter a serum-free F12 culture media containing 10 μM of Forskolin and 10 μM of Dopamine is added and react for 8 minutes, and then 100 μl of pre-cooled 1M HClO4 is added to terminate the reaction. The reaction solution is allowed to stand on ice for 40 minutes, and thereto 20 μl of 2M K2CO3 is added to neutralize the reaction solution. The reaction solution is centrifuged at 3,000 rpm for 15 minutes at 4° C., and a KClO4 deposit is discarded. An amount of supernatant is diluted in 0.05M of acetic acid buffer, and the amount of generated cAMP is measured with radioimmunoassay method. […] See the kit's instructions for detailed steps. Two tubes under each concentration of each compound are measured, and each compound is subjected to two independent tests.
The ordinate of the dose-effect curve represents a reduced percentage of the amount of generated cAMP through antagonist of DA by the compound.

For data set [3], the system named is schizophrenia behaviors in mice induced by apomorphine. Put plainly: In vivo anti-schizophrenia activity: apomorphine-induced stereotyped behavior in mice. Conditions: female KM mice, oral gavage 30 minutes before apomorphine 10 mg/kg i.p.; II-1 20 mg/kg, aripiprazole 5 mg/kg, risperidone 0.25 mg/kg. Here is the method:
A Test of In Vivo Anti-Schizophrenia Activity of Compound II-1
Apomorphine: apomorphine is dissolved in 0.1% ascorbic acid to form a solution having a dosage of 10 mg/kg.
Aripiprazole is dissolved in physiological saline to form a solution having a dosage of 5 mg/kg, and subjected to ultrasonication for dissolving.
Risperidone is dissolved in physiological saline to form a solution having a dosage of 0.25 mg/kg.
Compound II-1 is formulated to 20 mg/kg, and is formulated in situ for use.
Female KM mice, 18-22 g, are randomly divided into a solvent control group, a model control group, a positive control group, and various treatment groups of the tested medicines. Groups for behavior observation test contain 5 mice each group, and groups for activity observation test contain 4 mice each group.
(1) Administration in mice: each group of mice is administrated with 0.1 ml/10 g of the various tested medicines by oral gavage. […]
The stereotyped behavior numbers of the mice in various groups at six time points are statistically analyzed to calculate an average number of each mouse, and the result is denoted by mean±SD.
The test result of stereotyped behavior is statistically analyzed using a LSD method; and observation result of the numbers of activities of the mice is statistically analyzed with repeated-measures analysis of variance and Q-test.

These results are taken from patent publication US8653069B2, “Aralkyl substituted piperidine or piperazine derivatives and their use for treating schizophrenia” (Jiangsu Hengyi Pharmaceutical Co., Ltd., priority 2008, dated 2014).

Structures can show the parent of a compound that is named as a salt. Where two headings read alike, the source gives them in different places. Where only a bound is given, the exact number is not on record here.

T1 sequence (P14416 whole entry): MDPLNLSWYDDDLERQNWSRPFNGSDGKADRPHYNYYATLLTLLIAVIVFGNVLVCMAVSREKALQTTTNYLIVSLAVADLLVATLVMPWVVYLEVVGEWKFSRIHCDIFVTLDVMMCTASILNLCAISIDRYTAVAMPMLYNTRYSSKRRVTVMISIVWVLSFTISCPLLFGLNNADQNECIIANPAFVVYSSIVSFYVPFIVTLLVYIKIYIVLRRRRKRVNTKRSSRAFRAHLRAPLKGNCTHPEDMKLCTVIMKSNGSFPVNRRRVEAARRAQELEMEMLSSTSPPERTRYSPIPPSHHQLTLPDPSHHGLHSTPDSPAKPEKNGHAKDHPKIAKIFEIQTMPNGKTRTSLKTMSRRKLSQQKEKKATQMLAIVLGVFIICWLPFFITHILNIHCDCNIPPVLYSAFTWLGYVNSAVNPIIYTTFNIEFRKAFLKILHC
T2 sequence (P61169 whole entry): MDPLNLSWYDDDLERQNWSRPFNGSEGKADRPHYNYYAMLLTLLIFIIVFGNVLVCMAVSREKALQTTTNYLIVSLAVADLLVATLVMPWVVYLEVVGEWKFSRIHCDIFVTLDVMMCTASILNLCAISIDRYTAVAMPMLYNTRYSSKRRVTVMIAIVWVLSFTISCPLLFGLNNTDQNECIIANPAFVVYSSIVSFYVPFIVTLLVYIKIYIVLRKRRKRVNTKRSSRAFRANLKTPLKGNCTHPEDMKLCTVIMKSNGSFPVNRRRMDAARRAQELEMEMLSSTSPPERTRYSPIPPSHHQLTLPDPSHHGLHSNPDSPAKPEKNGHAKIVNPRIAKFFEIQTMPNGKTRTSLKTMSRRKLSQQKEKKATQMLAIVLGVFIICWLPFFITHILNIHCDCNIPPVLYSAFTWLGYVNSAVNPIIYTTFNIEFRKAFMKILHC

The LD50 is the dose expected to kill half of the subjects tested. A high value points to a less toxic substance. What is called IC50 is the concentration that inhibits the measured activity by half. `O=C1CCc2ccc(OCCCCN3CCC(c4noc5cc(F)ccc45)CC3)cc2N1` [II-1, 7-[4-(4-(6-fluoro-benzisoxazolyl)-1-piperidinyl)-n-butoxy]-3,4-dihydro-2(1H)-quinolinone hydrochloride]: in data set [1], the oral absorption result was “good”. In addition, the LD50 in “in vivo” is more than 2000 mg/kg. For the same molecule, in data set [2] (TA97, TA98, TA100, TA102, with or without S9, all tested doses), the Ames test entry was “negative”. Further, the “dose showing bacteriostatic action” value came to 5000 μg per dish in data set [2] (TA97, test system containing S9) and 5000 μg per dish in data set [2] (TA98, test system without S9). The concentration for half-maximal inhibition (IC50) at dopamine D2 receptor was determined as 5.66 nM; at rD2R, 3380 nM.

As to `O=C1CCc2ccc(OCCCCN3CCN(c4cccc(Cl)c4Cl)CC3)cc2N1` [aripiprazole], in data set [3], the “number of stereotyped activities of mice compared with the model group” value is “reduced significantly”. The same molecule yielded an LD50 in the data set “in vivo” of 1400 mg/kg.

As for `Cc1nc2n(c(=O)c1CCN1CCC(c3noc4cc(F)ccc34)CC1)CCCC2` [risperidone], the “number of stereotyped activities of mice compared with the model group” value in data set [3] is on record as “reduced significantly”. In addition, the LD50 in “in vivo” was determined as 83.2 mg/kg.
